# In patent US5914327A, “Biaryl-pyridoquinazolinone derivatives as anti-cancer agents” (American Cyanamid Company, priority 1997, dated 1999):
# Structures can show the parent of a compound that is named as a salt.
# Key:
# COLON 26 = experiment: Murine Colon 26 Advanced, Metastatic Tumor; assay type: in vivo, murine (CD2F1 mice)
# Method: (§1) Murine Tumor Standard Pharmacological Test Procedures
# Murine Colon 26 Advanced, Metastatic Tumor
# CD2F1 mice are injected i.p. with 5×10^5 tumor cells on Day 0 of the test. […]
# A2780 S = experiment: In vitro cytotoxicity, two cell line test procedure (A2780 S); assay type: cell-based; conditions: Homo sapiens, A2780S; 48 hours exposure, sulforhodamine B
# Method: (§2) Description of the two cell line test procedure
# (§3) A2780 S and A2780 DDP cells [Biochemical and Molecular Properties of Cisplatin-resistant A2780 Cells Grown in Folinic Acid; Y. Lu, J. Hnan, and K. Scanlon, J. Biol. Chem., 263, 4891-4894, 1988.] are grown in RPMI 1640 medium containing 5% fetal calf serum, 50 μg/ml streptomycin, 50 units/ml penicillin, 50 μg/ml gentamycin, 0.03% L-glutamine, 1 nM estradiol, 1 nM testosterone, 5 μg/mlinsulin, 5 μg/ml transferrin, and 5 ng/ml selenous acid, at 37° C., in a humidified atmosphere, containing 5% CO2. Experiments are done in the same media.
# (§4) Cells are plated at the concentration of 5×10^4 /ml on Day 0 of the experiment. On Day one control cells are fixed with trichloroacetic acid and 5 ten fold dilutions of tested compounds are added, in duplicates, to the remaining cells. On Day 3 (48 hours exposure to drugs) all cells are fixed with trichloroacetic acid, stained with 0.4% sulforhodamine B, and absorbency is read at 520 nm. The IC50s (concentration causing 50% inhibition) are determined for each drug.
# LS174T = experiment: Human Tumor Xenograft Standard Pharmacological Test Procedure; assay type: in vivo, human tumor in athymic nude mice; conditions: days 1,5,9
# Excerpt: Human Tumor Xenograft Standard Pharmacological Test Procedure
# A2780 DDP = experiment: In vitro cytotoxicity, two cell line test procedure (A2780 DDP); assay type: cell-based; conditions: Homo sapiens, 48 hours exposure, sulforhodamine B, cisplatin-resistant
# Method: as §2, §3, §4
# P388 [1] = experiment: Murine P388 Leukemia; assay type: in vivo, murine (CD2F1 mice); conditions: days 1,5,9
# Method: as §1
# CD2F1 mice are injected i.p. with 1×10^6 tumor cells on Day 0 of the test. Drugs are administered i.p. on Days 1, 5, and 9 after the tumor implantation.
# P388 [2] = experiment: Murine P388 Leukemia; assay type: in vivo, murine (CD2F1 mice); conditions: 200 mg/kg i.p., days 1,5
# [3] = Denny et al., Mutation Research 232: 233 (1990); cited from earlier work
# P388 [4] = conditions: Denny et al., Mutation Research 232: 233 (1990); cited from earlier work
SMILES,IC50 (A2780 S) [µg/mL],IC50 (A2780 DDP) [µg/mL],also measured
"COc1cccc2c1C(=O)c1c(O)c3c(c(O)c1C2=O)C[C@@](O)(C(=O)CO)C[C@@H]3O[C@H]1C[C@H](N)[C@H](O)[C@H](C)O1 [Adriamycin, reference compound]",–,–,"% ILS (COLON 26; 4 mg/kg i.p., days 5,9,14): +71 % ILS"
"CN(C)CCNC(=O)c1cccn2c(=O)c3cc(-c4cccc(N)c4)ccc3nc12 [Example 13, 11H-Pyrido[2,1-b]quinazoline-6-carboxamide, 2-(3-aminophenyl)-N-[2-(dimethylamino)ethyl]-11-oxo]",0.4,3.7,"% T/C (relative tumor growth treated/placebo) (LS174T; 250 mg/kg i.p.): 59 % T/C; % T/C (relative tumor growth treated/placebo) (LS174T; 300 mg/kg i.p.): 44 % T/C; % ILS (COLON 26; 100 mg/kg i.p., days 5,9,13): +18 % ILS; % ILS (COLON 26; 200 mg/kg i.p., days 5,9,13): +24 % ILS; % ILS (COLON 26; 250 mg/kg i.p., days 5,9,13): +35 % ILS; % ILS (P388 [1]; 25 mg/kg i.p.): +4 % ILS; % ILS (P388 [1]; 50 mg/kg i.p.): +2 % ILS; % ILS (P388 [1]; 100 mg/kg i.p.): +20 % ILS; % ILS (P388 [1]; 200 mg/kg i.p.): +57 % ILS"
"CN(C)CCNC(=O)c1cccn2c(=O)c3cc(-c4ccccc4-c4ccccc4)ccc3nc12 [Example 14, 11H-Pyrido[2,1-b]quinazoline-6-carboxamide, 2-[1,1'biphenyl]-2-yl-N-[2-(dimethylamino)ethyl]-11-oxo]",4.4,4.8,–
"CN(C)CCNC(=O)c1cccn2c(=O)c3cc(-c4cccc(-c5ccccc5)c4)ccc3nc12 [Example 15, 11H-Pyrido[2,1-b]quinazoline-6-carboxamide, 2-[1,1'-biphenyl]-3-yl-N-[2-(dimethylamino)ethyl]-11-oxo]",0.6,0.8,% ILS (P388 [1]; 50 mg/kg i.p.): +8 % ILS; % ILS (P388 [1]; 100 mg/kg i.p.): +2 % ILS; % ILS (P388 [2]): -40 % ILS
CN(C)CCNC(=O)c1cccn2c(=O)c3cc(-c4cc5ccccc5c5ccccc45)ccc3nc12 [Example 16],4.1,5.3,–
"CN(C)CCNC(=O)c1cccn2c(=O)c3cc(-c4cccc5ccccc45)ccc3nc12 [Example 17, 11H-pyrido[2,1-b)quinazoline-6-carboxamide, N-[2-(dimethylamino)ethyl]-2-(1-naphthalenyl)-11-oxo]",4.6,4.7,–
CN(C)CCNC(=O)c1cccn2c(=O)c3cc(-c4cccc(C(F)(F)F)c4)ccc3nc12 [Example 18],1.1,4.2,–
"COc1ccc(-c2ccc3nc4c(C(=O)NCCN(C)C)cccn4c(=O)c3c2)cc1 [Example 19, 11H-Pyrido[2,1-b]quinazoline-6-carboxamide, N-[2-(dimethylamino)ethyl]-2-(4-methoxyphenyl)-11-oxo]",4.3,3.4,% ILS (P388 [1]; 50 mg/kg i.p.): -9 % ILS; % ILS (P388 [1]; 100 mg/kg i.p.): +4 % ILS; % ILS (P388 [1]; 200 mg/kg i.p.): +6 % ILS
"CN(C)CCNC(=O)c1cccn2c(=O)c3cc(-c4cc(C(F)(F)F)cc(C(F)(F)F)c4)ccc3nc12 [Example 20, 11H-Pyrido[2,1-b]quinazoline-6-carboxamide, 2-[3,5-bis(trifluoromethyl)phenyl]-N-[2-(dimethylamino)ethyl]-11-oxo]",3.8,3,–
CN(C)CCNC(=O)c1cccn2c(=O)c3cc(-c4cccc(N(C)C)c4)ccc3nc12 [Example 21],0.2,0.5,–
"Nc1cccc(-c2ccc3nc4c(C(=O)NCCNCCO)cccn4c(=O)c3c2)c1 [Example 24, 11H-Pyrido [2,1-b]quinazoline-6-carboxamide, 2-(3-aminophenyl)-N-[2-[(2-hydroxyethyl)amino]ethyl]-11-oxo-trihydrochloride]",0.6,2.1,"% ILS (COLON 26; 200 mg/kg i.p., days 5,9,13): +24 % ILS; % ILS (COLON 26; 300 mg/kg i.p., days 5,9,13): -24 % ILS; % ILS (P388 [1]; 25 mg/kg i.p.): +12 % ILS; % ILS (P388 [1]; 50 mg/kg i.p.): +4 % ILS; % ILS (P388 [1]; 100 mg/kg i.p.): +4 % ILS; % ILS (P388 [1]; 200 mg/kg i.p.): 0 % ILS"
"O=C(NCCNCCO)c1cccn2c(=O)c3cc(-c4ccccc4)ccc3nc12 [Example 26, 11H-pyrido[2,1-b]quinazoline-6-carboxamide, N-[2-[(2-hydroxyethyl)amino]-ethyl]-11-oxo-2-phenyl, dihydrochloride]",0.8,3.5,–
"Nc1ccccc1-c1ccc2nc3c(C(=O)NCCNCCO)cccn3c(=O)c2c1 [Example 30, 11H-Pyrido[2,1-b]quinazoline-6-carboxamide, 2-(2-aminophenyl)-N-[2-[(2-hydroxyethyl)amino]ethyl]-11-oxo-trihydrochloride]",4.8,6.9,–
"CN(C)CCNC(=O)c1cccn2c(=O)c3ccc(-c4cccc(N)c4)cc3nc12 [Example 35, 11H-Pyrido[2,1-b]quinazoline-6-carboxamide, 3-(3-aminophenyl)-N-[2-(dimethylamino)ethyl]-11-oxo]",0.5,0.4,–
"CN(C)CCNC(=O)c1cccn2c(=O)c3ccccc3nc12 [I, N-[2-(dimethylamino)ethyl]-11-oxo-11H-pyrido[2,1-b]quinalzoline-6-carboxamide]",–,–,in vitro activity [3]: showed some in vitro activity; activity in P388 mouse model (P388 [4]): inactive in a P388 mouse model
"CC[C@]1(O)C[C@H]2CN(CCc3c([nH]c4ccccc34)[C@@](C(=O)OC)(c3cc4c(cc3OC)N(C=O)[C@H]3[C@@](O)(C(=O)OC)[C@H](OC(C)=O)[C@]5(CC)C=CCN6CC[C@]43[C@@H]65)C2)C1 [Vincristine, reference compound]",–,–,% T/C (relative tumor growth treated/placebo) (LS174T; 1.0 mg/kg i.p.): 52 % T/C; % ILS (P388 [1]; 0.8 mg/kg i.p.): +114 % ILS
